Laboratory results published in article PMC8291497 (ACS Chemical Biology, 2021).
Where no end group is shown, it is not given here. TAMRA = carboxytetramethylrhodamine

Experiments:
[1] = molecular target: T1, Mint2 PARM 364-570 (Y524W), pWT PARM (PTB domain and ARM linker) (Homo sapiens, UniProt Q99767, Y524W); test: Stopped flow binding kinetics, APP peptides to PARM (pseudo-wild type)
T1 construct: made in house; host or cells: Escherichia coli BL21(DE3)pLysS
T1 sequence (Q99767 364-570 Y524W): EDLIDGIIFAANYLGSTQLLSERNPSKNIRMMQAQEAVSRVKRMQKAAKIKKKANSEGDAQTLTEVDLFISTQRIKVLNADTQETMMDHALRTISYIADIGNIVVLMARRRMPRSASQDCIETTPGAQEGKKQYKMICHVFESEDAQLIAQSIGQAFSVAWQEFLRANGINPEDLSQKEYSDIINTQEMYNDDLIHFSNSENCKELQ
Procedure: (§1) Kinetic binding rate constants were obtained using an upgraded SX17 stopped flow spectrometer (Applied Photophysics), and all experiments were conducted at 25 °C in 500 mM NaCl and 25 mM HEPES (pH 7.4). The relatively high NaCl concentration was used to improve the solubility of the proteins. The change in tryptophan fluorescence was measured using a band-pass filter (excitation at 280 nm and emission at 330 ± 30 nm) when mixing varying concentrations (2–50 μM) of the dansyl peptides with 1 μM protein or 0.5 μM semisynthetic proteins. […] For PTB variants, we used the kobs value from the fast kinetic phase for the analysis. […] We report the errors in kon and koff from the curve fitting. […] For these koff determinations, we report the standard error of the mean of three replicates. Φ values were defined as ΔΔGTS/ΔΔGeq, where ΔΔGTS = RT ln(kon^WT/kon^mut.) and ΔΔGeq = RT ln(Kd^mut./Keq^WT). Calculated coupling free energies were defined as ΔΔΔGEq = RT ln(Kd^mut.:WTKd^WT:mut./Kd^WT:WTKd^mut.:mut.) or ΔΔΔGTS = RT ln(kon^WT:WTkon^mut.:mut./kon^mut.:WTkon^WT:mut.) as previously described.[27] Propagated errors are reported.

[2] = molecular target: T2, Mint2 PTB 364-538 (without the ARM linker) (Homo sapiens, UniProt Q99767, Y524W); test: Stopped flow binding kinetics, APP peptides to PTB
T2 construct: made in house; host or cells: Escherichia coli BL21(DE3)pLysS
T2 sequence (Q99767 364-538 Y524W): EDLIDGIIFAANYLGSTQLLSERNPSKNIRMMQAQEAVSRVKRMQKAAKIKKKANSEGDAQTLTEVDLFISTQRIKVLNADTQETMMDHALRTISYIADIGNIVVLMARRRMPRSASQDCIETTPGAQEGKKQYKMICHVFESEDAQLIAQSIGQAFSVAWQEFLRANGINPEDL
Procedure: as §1

[3] = molecular target: Mint2 PARMWT 364-570 (Homo sapiens, UniProt Q99767); test: biochemical
[4] = molecular target: Mint2 PARM 364-570 (Y524W) (Homo sapiens, UniProt Q99767, Y524W); test: biochemical
[5] = molecular target: T3, Mint2 PARM 364-570 (Y524W, Y543A) (Homo sapiens, UniProt Q99767, Y524W/Y543A); test: biochemical
T3 sequence (Q99767 364-570 Y524W/Y543A): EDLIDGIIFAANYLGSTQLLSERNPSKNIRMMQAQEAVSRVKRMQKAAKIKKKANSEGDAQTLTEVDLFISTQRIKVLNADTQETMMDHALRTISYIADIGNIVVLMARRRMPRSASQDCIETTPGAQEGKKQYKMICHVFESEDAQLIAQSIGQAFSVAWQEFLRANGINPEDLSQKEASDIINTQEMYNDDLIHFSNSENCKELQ

[6] = molecular target: T4, Mint2 PARM 364-570 (Y524W, Y543E) (Homo sapiens, UniProt Q99767, Y524W/Y543E); test: biochemical
T4 sequence (Q99767 364-570 Y524W/Y543E): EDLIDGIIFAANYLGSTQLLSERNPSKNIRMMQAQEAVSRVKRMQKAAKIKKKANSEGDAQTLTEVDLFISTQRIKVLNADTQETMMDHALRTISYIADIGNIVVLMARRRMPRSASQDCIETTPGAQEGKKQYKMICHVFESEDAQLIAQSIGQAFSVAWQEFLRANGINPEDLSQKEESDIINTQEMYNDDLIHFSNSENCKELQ

[7] = molecular target: Mint2 PTB 364-538 (Homo sapiens, UniProt Q99767, Y524W); test: biochemical
[8] = molecular target: T3, Mint2 PARM 364-570 (Y524W, Y543A); test: Stopped flow binding kinetics, APP peptides to PARM^Y543A; set-up: made in house; host or cells: Escherichia coli BL21(DE3)pLysS
Procedure: as §1

[9] = molecular target: T4, Mint2 PARM 364-570 (Y524W, Y543E); test: Stopped flow binding kinetics, APP peptides to PARM^Y543E; set-up: made in house; host or cells: Escherichia coli BL21(DE3)pLysS
Procedure: as §1

[10] = molecular target: PARM^WT (human Mint2 PTB domain with ARM linker, residues 364-570, no Y524W) (human, UniProt Q99767 364-570); test: fluorescence polarisation; settings: both partners purified
[11] = molecular target: PARM, pseudo-wild type (human Mint2 364-570, Y524W) (human, UniProt Q99767 364-570, Y524W); test: fluorescence polarisation; settings: both partners purified
[12] = molecular target: PARM^Y543A (human Mint2 364-570, Y524W, Y543A) (human, UniProt Q99767 364-570, Y524W | Y543A); test: fluorescence polarisation; settings: both partners purified
[13] = molecular target: PARM^Y543E (human Mint2 364-570, Y524W, Y543E) (human, UniProt Q99767 364-570, Y524W | Y543E); test: fluorescence polarisation; settings: both partners purified
[14] = molecular target: PTB (human Mint2 PTB domain without the ARM linker, residues 364-538, Y524W) (human, UniProt Q99767 364-538, Y524W); test: fluorescence polarisation; settings: both partners purified
[15] = molecular target: pseudo-wild type (pWT) PARM domain of Mint2 (residues 364-570, Y524W) (human, UniProt Q99767 364-570, Y524W); test: fluorescence polarisation; settings: both partners purified
[16] = molecular target: PARM^WT (Mint2 residues 364-570) (human, UniProt Q99767 364-570); test: fluorescence polarisation; settings: both partners purified

Q: Which results are given for C[C@@H](O)[C@H](NC(=O)[C@@H]1CCCN1C(=O)[C@H](CC(N)=O)NC(=O)[C@H](CCC(=O)O)NC(=O)[C@H](Cc1ccc(O)cc1)NC(=O)CNC(=O)[C@H](CC(N)=O)NC(=O)CNC(=O)[C@H](CC(N)=O)NC(=O)[C@H](CC(N)=O)NS(=O)(=O)c1cccc2c(N(C)C)cccc12)C(=O)N[C@@H](Cc1ccc(O)cc1)C(=O)N[C@@H](CCCCN)C(=O)N[C@@H](Cc1cccc2ccccc12)C(=O)N[C@@H](Cc1ccccc1)C(=O)N[C@@H](CCC(=O)O)C(=O)O [Peptide F764Nal1]?
A: Kd [1]: 1100 nM; kon ([1]; pH 7.4): 1.2e+06 M⁻¹ s⁻¹; koff ([1]; stopped flow, same buffer, 25 °C, from fit of kobs vs peptide concentration, or displacement with 50–150 µM APP^WT when not well-defined): 1.3 s⁻¹; Kd [2]: 70 nM; koff [2]: 2.3 s⁻¹; kon ([2]; pH 7.4): 3.1e+07 ± 1e+06 M⁻¹ s⁻¹; Ki [3]: 1300 nM; Ki [4]: 500 nM; Ki [5]: 500 nM; Ki [6]: 470 ± 30 nM; Ki [7]: 290 nM; Kd [8]: 490 nM; koff [8]: 1.3 s⁻¹; kon ([8]; pH 7.4): 2.5e+06 M⁻¹ s⁻¹; Kd [9]: 430 nM; koff [9]: 1.2 s⁻¹; kon ([9]; pH 7.4): 2.9e+06 M⁻¹ s⁻¹

B1: APP^WT 12-mer (NGYENPTYKFFE), unlabelled (peptide)
peptide: NGYENPTYKFFE
Q: How did the Ki [10] turn out when B1 was run?
A: Its Ki is 3200 nM.

Q: What about the Ki [11] of the same molecule?
A: Its Ki is 3500 nM.

Q: And the Ki [12]?
A: Its Ki is 1100 nM.

Q: What about the Ki [13] of the same molecule?
A: The Ki was 1100 nM.

Q: What about the Ki [14] of the same molecule?
A: Its Ki is 740 nM.

B2: (TAMRA)-NNG-NGYENPTYKFFE (peptide)
peptide: {TAMRA}-NNGNGYENPTYKFFE
Q: Does B2 bind [15]?
A: Result: binds

Q: Does B2 bind [16]?
A: Result: binds
